Results from patent US12018011B2, “Macrocyclic compounds and compositions, and methods of preparing and using the same” (Kura Oncology, Inc., priority 2021, dated 2024).

Tests used:
T24/83 cells = assay: T24/83 cell proliferation assay (CellTiter-Glo); assay type: cell-based; details: Homo sapiens, 96 h, 4 days
From the text: (§1) T24/83 cell line was purchased from the European Collection of Authenticated Cell Cultures (Salisbury, UK). Recombinant human farnesyl transferase (FTase) and geranylgeranyl transferase type-1 (GGTase) were obtained from Crelux (Martinsried, Germany). Dansyl labelled GCVLS peptide was purchased from Bachem (Torrance, CA), and Dansyl labelled GCVLL peptide was purchased from Bio Synthesis (Lewisville, TX). Farnesyl Pyrophosphate (FPP) and Geranylgeranyl pyrophosphate (GGPP) were purchased from Cayman (Ann Arbor, MI).
Mutant oncogenic HRAS was originally identified in a human bladder carcinoma cell line called T24. T24/83 is a subline of T24 established more recently that has more favorable growth characteristics for in vitro assays. Thus, T24/83 is a well-characterized mutant HRAS-dependent cell line that is an ideal model for quantifying the HRAS-dependent antitumor activity of farnesyltransferase inhibitors.
T24/83 cells were inoculated into 384 well plates at 100 cells/well, and grown in the presence of inhibitor, 0.7% DMSO as a negative control, or 100 μM tipifarnib as a positive control, at 37° C. for 4 days. Cell viability was assessed using the CellTiter-Glo Kit (CTG) (Promega; Madison, WI). Luminescence was recorded using EnVision microplate reader (PerkinElmer; Waltham, MA). In this assay, tipifarmib was used as a positive control. All the assay plates passed the QC criteria (S/B, Z-factor).

[1] = target: T1, geranylgeranyl transferase type-1 (GGTase) (Homo sapiens, UniProt P53609); assay: GGTase fluorescence assay (dansyl-GCVLL peptide, GGPP); assay type: biochemical; details: GGTase 25 nM, Dansyl-GCVLL 10 μM, GGPP 10 μM, 30° C., 120 minutes
T1 construct: purchased Crelux (Martinsried, Germany)
From the text: as §1
Geranylgeranyl transferase (GGTase) is a closely related enzyme to farnesyl transferase (FTase). The two enzymes share a common regulatory chain but have distinct individual enzymatic domains. GGTase catalyses the addition of an alternative prenylated side chain to some of the same proteins that may also be farnesylated. Thus, selective inhibitory activity against FTase relative to GGTase is a critical characteristic for FTase inhibitors.
The IC50 value of the compounds disclosed herein as inhibitors of Ftase and/or GGTase, was determined by measuring the concentration (provided in nM) necessary to achieve inhibition of enzyme activity by 50% (IC50). […] Compounds having a low IC50 value against FTase, for example an IC50 (FTase)<100 nM, such as an IC50 (FTase)<10 nM, are preferred. Compounds having a low IC50 value against FTase and a high IC50 value against GGTase, for example an IC50 (FTase)<100 nM, such as an IC50 (FTase)<10 nM, and an IC50 (GGTase)>100 nM, are potent and selective inhibitors of FTase, and are particularly preferred.
The inhibition activities of the compounds disclosed herein against Ftase and GGTase were measured in the respective fluorescence assays as follows:
For the GGTase assay, GGTase (25 nM), Dansyl labelled GCVLL peptide (10 μM), GGPP (10 μM) and inhibitor were mixed in assay buffer (50 mM Tris, pH 7.5, 10 mM magnesium chloride, 10 μM zinc chloride, 0.08% CHAPS, 5 mM dithiothreitol) and incubated in a total volume of 20 μL at 30° C. for 120 minutes.
For both the FTase assay and GGTase assay, fluorescence intensity was detected (excitation at 340 nm and emission at 486 nm) using EnVision (PerkinElmer; Waltham, MA), IC50 determinations were performed using a sigmoidal dose-response model with Xlfit software (IDBS, Inc.; Boston, MA), and tipifarnib was used as a positive control. All the assay plates for each assay passed the QC criteria (S/B, Z factor).

[2] = target: T2, Recombinant human farnesyl transferase (FTase) (Homo sapiens, UniProt P49356); assay: FTase fluorescence assay (farnesylation of dansyl-GCVLS peptide); assay type: biochemical; details: recombinant human FTase 2.5 nM, Dansyl-GCVLS 85 nM, FPP 30 nM, 30° C., 50 minutes
T2 construct: purchased Crelux (Martinsried, Germany)

[3] = Metabolic stability in human liver microsomes; assay type: in vitro ADME; details: human liver microsomes 0.5 mg protein/mL, test compound 1 μM, 37° C.; read-out: T1/2 in HLM
Experimental: (§2) The metabolic stability of the compounds disclosed herein was determined by measuring half-life (T1/2) of the compounds in the presence of mouse liver microsomes (MLM) or human liver microsomes (BILM).
(§3) Intermediate solution: 5 μL of compound and control stock solution (10 mM in dimethyl sulfoxide (DMSO)) were diluted with 495 μL of acetonitrile (ACN) (intermediate solution concentration: 100 μM, 99% ACN).
(§4) Working solution: 50 μL of compound and control intermediate solution (100 μM) were diluted with 450 μL of 100 mM potassium phosphate buffer (working solution concentration: 10 μM, 9.9% ACN).
(§5) Controls used in this assay: Testosterone, Diclofenac, and Propafenone.
(§6) Preparation Procedure: The appropriate amount of NADPH powder was weighed and diluted into a 10 mM MgCl2 solution (working solution concentration: 10 unit/mL; final concentration in reaction system: 1 unit/mL).
(§7) The appropriate concentrations of microsome working solutions were prepared in 100 mM potassium phosphate buffer.
(§8) Cold (4° C.) acetonitrile (CAN) containing 200 ng/mL tolbutamide and 200 ng/mL labetalol as internal standards (IS) was used as the stop solution.
(§9) Using an Apricot automation workstation, 10 μL/well of compound working solution were added to all 96-well reaction plates except the blank (T0, T5, T10, T20, T30, T60, and NCF60).
(§10) An Apricot automation workstation was used to add 80 μL/well of microsome solution to all reaction plates (Blank, T0, T5, T10, T20, T30, T60, and NCF60).
(§11) All reaction plates containing mixtures of compound and microsomes were pre-incubated at 37° C. for 10 minutes.
(§12) An Apricot automation workstation was used to add 10 μL/well of 100 mM potassium phosphate buffer to reaction plate NCF60.
(§13) Reaction plate NCF60 was incubated at 37° C. for 60 minutes.
(§14) After pre-incubation, an Apricot automation workstation was used to add 10 μL/well of NADPH regenerating system to every reaction plate except NCF60 (Blank, T0, T5, T10, T20, T30, and T60) to start the reaction. Final concentration of each component in incubation medium: Microsome (0.5 mg protein/mL); Test Compound (1 μM); Control Compound (1 μM); Acetonitrile (0.99%); DMSO (0.01%).
(§15) The reaction plates were incubated at 37° C. for 0 minute (T0, stop solution was added prior to microsome and NADPH solutions), 5 minutes (T5), 10 minutes (T10), 20 minutes (T20), 30 minutes (T30), 60 minutes (T60).
(§16) An Apricot automation workstation was used to add 300 μL/well of stop solution to each reaction plate at its appropriate end time point to terminate the reaction.
(§17) Each plate was sealed and shaken for 10 minutes.
(§18) After shaking, each plate was centrifuged at 4000 rpm and 4° C. for 20 minutes.
(§19) During centrifugation, an Apricot automation workstation was used to add 300 µL/well of HPLC grade water to eight new 96-well plates.
(§20) After centrifugation, an Apricot automation workstation was used to transfer 100 μL of supernatant from each reaction plate to its corresponding bioanaylsis plate.
(§21) Each bioanalysis plate was sealed and shaken for 10 minutes prior to LC-MS/MS analysis.
(§22) The equation of first order kinetics was used to calculate T1/2 and CLint(mic) (μL/min/mg).

[4] = Metabolic stability in mouse liver microsomes; assay type: in vitro ADME; details: CD-1 mouse liver microsomes 0.5 mg protein/mL, test compound 1 μM, 37° C.; read-out: T1/2 in MLM
Experimental: as §2, §3, §4, §5, §6, §7, §8, §9, §10, §11, §12, §13, §14, §15, §16, §17, §18, §19, §20, §21, §22

SMILES	IC50 (T24/83 cells) [nM]	IC50 [1] [nM]	IC50 [2] [nM]	half-life at 1 μM [3] [min]	half-life at 1 μM [4] [min]
Cn1cncc1[C@@]1(N)c2ccc(C#N)c(c2)CCc2cccc(c2)-c2cc(C#N)nc3ccc1cc23 [(R)-9, (R)-3-amino-3-(1-methyl-1H-imidazol-5-yl)-2(4,6)-quinolina-1,4(1,3)-dibenzenacyclohexaphane-2^2 4^4-dicarbonitrile]	≤ 50	100 to 1000	≤ 10		
Cn1cncc1[C@@]1(O)c2ccc(Cl)c(c2)OCCc2cccc(c2)-c2cc(=O)n(C3CC3)c3ccc1cc23 [(S)-29, (S)-4^4-chloro-2^1-cyclopropyl-3-hydroxy-3-(1-methyl-1H-imidazol-5-yl)-2^1,2^2-dihydro-5-oxa-2(4,6)-quinolina-1,4(1,3)-dibenzenacycloheptaphan-2^2-one]	50 to 500		≤ 10	< 30	< 5
Cn1cncc1[C@@]1(N)c2ccc(C#N)c(c2)COc2cccc(c2)-c2cc(=O)n(C3CC3)c3ccc1cc23 [(S)-57, (S)-3-amino-2^1-cyclopropyl-3-(1-methyl-1H-imidazol-5-yl)-2^2-oxo-2^1,2^2-dihydro-6-oxa-2(4,6)-quinolina-1,4(1,3)-dibenzenacyclohexaphane-4^4-carbonitrile]	≤ 50	> 1000	≤ 10		
Cn1cncc1C1(O)c2ccc(Cl)c(c2)CCOc2cccc(c2)-c2cc(=O)n(C)c3ccc1cc23 (centres unmarked) [Compound 65, 4^4-chloro-3-hydroxy-2^1-methyl-3-(1-methyl-1H-imidazol-5-yl)-2^1,2^2-dihydro-7-oxa-2(4,6)-quinolina-1,4(1,3)-dibenzenacycloheptaphan-2^2-one]	50 to 500		≤ 10	< 30	5 to 15
Cn1cncc1C1(O)c2ccc(Cl)c(c2)COc2cccc(c2)-c2cc(=O)n(C)c3ccc1cc23 (centres unmarked) [Compound 45, 4^4-chloro-3-hydroxy-2^1-methyl-3-(1-methyl-1H-imidazol-5-yl)-2^1,2^2-dihydro-6-oxa-2(4,6)-quinolina-1,4(1,3)-dibenzenacyclohexaphan-2^2-one]	≤ 50		≤ 10	> 100	> 15
[2H]C([2H])([2H])n1c(=O)cc2c3cc(ccc31)[C@@](O)(c1cncn1C)c1ccc(Cl)c(c1)OCCc1cccc-2c1 [(S)-28, (S)-4^4-chloro-3-hydroxy-2^1-(methyl-d3)-3-(1-methyl-1H-imidazol-5-yl)-2^1,2^2-dihydro-5-oxa-2(4,6)-quinolina-1,4(1,3)-dibenzenacycloheptaphan-2^2-one]	≤ 50		≤ 10	< 30	< 5
Cn1cnnc1[C@@]1(N)c2ccc(Cl)c(c2)OCCc2cccc(c2)-c2cc(=O)n(C3CC3)c3ccc1cc23 [(S)-35, (S)-3-amino-4^4-chloro-2^1-cyclopropyl-3-(4-methyl-4H-1,2,4-triazol-3-yl)-2^1,2^2-dihydro-5-oxa-2(4,6)-quinolina-1,4(1,3)-dibenzenacycloheptaphan-2^2-one]	50 to 500		≤ 10	< 30	< 5
Cn1cncc1[C@@]1(O)c2ccc(Cl)c(c2)OCCc2cccc(c2)-c2cc(=O)[nH]c3ccc1cc23 [(S)-25, (S)-4^4-chloro-3-hydroxy-3-(1-methyl-1H-imidazol-5-yl)-2^1,2^2-dihydro-5-oxa-2(4,6)-quinolina-1,4(1,3)-dibenzenacycloheptaphan-2^2-one]	50 to 500		≤ 10	< 30	< 5
Cn1cncc1[C@@]1(N)c2ccc(Cl)c(c2)OCCc2cccc(c2)-c2cc(=O)n(C3CC3)c3ccc1cc23 [(S)-30, (S)-3-amino-4^4-chloro-2^1-cyclopropyl-3-(1-methyl-1H-imidazol-5-yl)-2^1,2^2-dihydro-5-oxa-2(4,6)-quinolina-1,4(1,3)-dibenzenacycloheptaphan-2^2-one]	50 to 500		≤ 10	< 30	< 5
Cn1cnnc1[C@@]1(N)c2ccc(C#N)c(c2)OCCc2cccc(c2)-c2cc(=O)n(C)c3ccc1cc23 [(S)-39, (S)-3-amino-2^1-methyl-3-(4-methyl-4H-1,2,4-triazol-3-yl)-2^2-oxo-2^1,2^2-dihydro-5-oxa-2(4,6)-quinolina-1,4(1,3)-dibenzenacycloheptaphane-4^4-carbonitrile]	≤ 50		≤ 10	> 100	> 15
Cn1cncc1[C@@]1(O)c2ccc(C#N)c(c2)OCCc2cccc(c2)-c2cc(=O)n(C)c3ccc1cc23 [(S)-36, (S)-3-hydroxy-2^1-methyl-3-(1-methyl-1H-imidazol-5-yl)-2^2-oxo-2^1,2^2-dihydro-5-oxa-2(4,6)-quinolina-1,4(1,3)-dibenzenacycloheptaphane-4^4-carbonitrile]	≤ 50		≤ 10	< 30	5 to 15
Cn1cncc1C1(O)c2ccc(C#N)c(c2)COc2cccc(c2)-c2cc(C#N)nc3ccc1cc23 (centres unmarked) [Compound 72, 3-hydroxy-3-(1-methyl-1H-imidazol-5-yl)-6-oxa-2(4,6)-quinolina-1,4(1,3)-dibenzenacyclohexaphane-2^2 4^4-dicarbonitrile]	50 to 500		≤ 10		
